Measurements taken from article PMC11234460, “In Silico Discovery of Stapled Peptide Inhibitor Targeting the Nur77‐PPARγ Interaction and Its Anti‐Breast‐Cancer Efficacy” (Advanced Science, 2024).
Where a SMILES comes first, the peptide text is derived from it. Bridges are numbered along the chain shown (N, C = ends). [ ]: non-standard residue; d: D form. S5 = C=CCCC[C@](C)(N)C(=O)O

Columns and labels:
[1] = system: MDA-BoM-1833 bone metastasis; assay: Bone metastatic breast cancer model (MDA-BoM-1833, left ventricle injection); type: in vivo, mouse
Text: Female BALB/c mice (4–5 weeks old, 16–18 g) and BALB/c mice (7–8 weeks old, 18–20 g) were provided by Shanghai Slake Experimental Animal Co., Ltd., and housed under specific pathogen‐free conditions for use in orthotopic xenograft tumor model experiments and bone metastasis tumor model experiments. The animal experiment was approved by the ethical committee of Shanghai University of Traditional Chinese Medicine (approval number: PZSHUTCM220627036).
To establish the bone metastasis tumor model, 1×10^5 cells were injected into the left ventricle of each mouse (7–8 weeks old), and surgery was monitored using a cardiac ultrasound instrument. The mice were randomly divided into three groups and treated with PBS (control group, n = 6), 5 mg kg^−1 ST‐CY14 (n = 6), and 10 mg kg^−1 ST‐CY14 (n = 6) Tumor cell metastasis was monitored using an in vivo imaging instrument (IVIS Spectrum, PerkinElmer, USA). by intraperitoneal injection of 20 mg kg^−1 D‐luciferin. The mice were treated with ST‐CY14 via intravenous injection using a 100 µL PBS solution every 2 days starting on the designated day after tumor cell injection. Bone tissue with MDA‐BoM‐1833 cell metastasis was obtained and stained for TRAP. The mice sera were collected and analyzed for BSP and β‐CTx levels using ELISA (Lengton, BPE10823, BPE10438). For the orthotopic xenograft tumor model, 3×10^6 cells were injected into the fourth pair of breast pads on the left side of the mouse (4–5 weeks old). The mice were treated with ST‐CY14 every two days once the tumor volume reached 30–50 mm^3, with the same groups as in the bone metastasis tumor model. The tumors were collected and stained for H&E, Ki‐67, and TUNEL assays, which were conducted by Wuhan Servicebio Technology Co., Ltd. Major organs (heart, liver, spleen, lung, and kidney) were also collected for H&E analysis by Wuhan Servicebio Technology Co., Ltd. The Transcriptome and LC/MS targeted lipid metabolome were sequenced by OE Biotech, Inc., Shanghai, China. To evaluate the efficacy of Csn‐B in inhibiting breast cancer bone metastasis, an animal model was established as described above. The mice were randomly divided into three groups and treated with PBS (control group, n = 6), 10 mg kg^−1 ST‐CY14 (n = 6) in 100 µL PBS solution, and 5 mg kg^−1 ST‐CY14 (n = 6) in a 100 µL mixed solution (5% DMSO, 20% PEG 400, 5% Tween 80, and 70% normal saline) via intravenous injection every 2 days starting on the designated day after tumor cell injection.

[2] = system: MCF7 cells; assay: qPCR of CD36 and FABP4; type: cell-based, human; conditions: n = 3

C[C@@H](O)[C@@H]1NC(=O)[C@H](CCCNC(=N)N)NC(=O)[C@H](CCCNC(=N)N)NC(=O)[C@@](C)(NC(=O)[C@H](Cc2ccccc2)NC(=O)CNC(=O)[C@H](CCCCN)NC(=O)[C@H](CS)NC(=O)CNC(=O)[C@H](CCC(=O)O)NC(=O)[C@@H](N)CS)CCCC=CCCC[C@@](C)(C(=O)N[C@@H](CCCNC(=N)N)C(=O)N[C@@H](Cc2ccc(O)cc2)C(=O)N[C@@H](Cc2ccc(O)cc2)C(=O)NCC(=O)N[C@@H](CCCNC(=N)N)C(=O)N[C@@H](CCCCN)C(=O)N[C@@H](CCCCN)C(=O)N[C@@H](CCCNC(=N)N)C(=O)N[C@@H](CCCNC(=N)N)C(=O)N[C@@H](CCC(N)=O)C(=O)N[C@@H](CCCNC(=N)N)C(=O)N[C@@H](CCCNC(=N)N)C(=O)N[C@@H](CCCNC(=N)N)C(N)=O)NC1=O [ST-CY14] (H-CEGCKGF[S5]RRT[S5]RYYGRKKRRQRRR-NH2; staple 8-12)
Bone metastasis (bioluminescence imaging) ([1]; 5 and 10 mg kg^−1 i.v. every 2 days, day 28, n = 6): inhibited the metastasis of tumor cells | H&E staining of major organs ([1]; heart, liver, spleen, lung, kidney, n = 3): None of the groups demonstrated notable changes in H&E staining of major organs | Efficacy in inhibiting bone metastasis compared with Csn-B ([1]; i.v. every 2 days, day 28, n = 6): superior to that of Csn‐B | TRAP level in mouse femoral head ([1]; staining of bone tissue): decrease in the level of tartrate‐resistant acid phosphatase | BSP and β-CTx levels in mouse blood (ELISA) ([1]; versus control group): Lower levels | CD36 and FABP4 transcription (qPCR) [2]: dose‐dependently inhibited CD36 and FABP4 expression at the transcriptional level
